Ki data for six molecules are collected here from BindingDB's records for doi:10.1016/j.ejmech.2012.01.025 (National Institute On Drug Abuse and The National Institute …, 2012).

pKi: −log10 of the molar value. Some results are limits rather than exact numbers.

Broadly, the pKi is −log10 of the Ki, conventionally taken in molar units.

Chain of Delta-type opioid receptor (P41143 whole entry): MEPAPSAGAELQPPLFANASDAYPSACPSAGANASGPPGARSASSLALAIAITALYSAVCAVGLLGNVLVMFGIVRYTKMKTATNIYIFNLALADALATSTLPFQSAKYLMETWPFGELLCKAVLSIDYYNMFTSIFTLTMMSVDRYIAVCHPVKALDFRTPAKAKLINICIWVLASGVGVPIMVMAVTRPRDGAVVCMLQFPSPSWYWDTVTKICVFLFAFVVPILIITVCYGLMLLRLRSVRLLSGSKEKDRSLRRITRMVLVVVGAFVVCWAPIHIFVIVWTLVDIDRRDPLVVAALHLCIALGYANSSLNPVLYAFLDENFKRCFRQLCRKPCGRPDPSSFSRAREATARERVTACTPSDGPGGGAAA

This assay addresses Delta-type opioid receptor (Homo sapiens, UniProt P41143). Kind of assay: Displacement of [3H]-DADLE from human delta opioid receptor expressed in CHO cells membrane after 2 hrs by liquid scintillation counting.
`CN1C[C@H](O)[C@]2(c3cccc(O)c3)CCC[C@H]1C2` had a pKi of 5.14.
Regarding `Oc1cccc([C@@]23CCC[C@@H](C2)N(CCc2ccccc2)C[C@@H]3O)c1`, the negative-log Ki (pKi) was 5.24.
With `CN1C[C@@H](O)[C@]2(c3cccc(O)c3)CCC[C@H]1C2` the figure was below 4.82.
Then `Oc1cccc([C@@]23CCC[C@@H](C2)N(CCc2ccccc2)C[C@H]3O)c1`, with 6.00; and `CN1C2CCC[C@@](c3cccc(O)c3)(C2)[C@@H]1CO`, with below 5.00.
Then `CN1CC2(OCCO2)[C@]2(c3cccc(O)c3)CCC[C@H]1C2`, with below 5.11.
